In patent publication US20120134948A1, “ANTIMICROBIAL ETHER GUANIDINES” (EVONIK GOLDSCHMIDT GMBH, priority 2009, published 2012):

Columns and labels:
Assay type in all cases: cell-based
[1] = test system: test microorganisms; test: Antimicrobial activity test, overall statement; details: overall observation; microbial count in negative controls unchanged
Experimental: (§1) The test microorganisms were inoculated from a strain culture into an agar-containing Caso medium (Merck, Darmstadt, Germany) and incubated for 24 h to 48 hours at 25 to 37° C., depending on the microorganism. A Caso slanted agar tube was inoculated with this preculture and again incubated under identical conditions.
(§2) To prepare the microorganism suspension to be tested, the microorganisms were washed off with 5 ml of phosphate-buffer saline (PBS, 50 mM potassium phosphate pH6, 100 mM NaCl), made up to 12.5 ml with PBS and resuspended by vortexing. To carry out the following test, this microorganism suspension was diluted to a microbial count of from 2U+5 to 8U+5.
The products to be tested made as a stock solution; they contained 10 g of ethanol, 0.68 g of macrogol glycerol hydroxystearate 40 (Cremophor® RH40, Omikron, Neckarwestheim, Germany), 1 g of the active substance to be tested and 38.32 g of double-distilled water. […]
(§3) To carry out the test, 1 ml-Eppendorf cubes were filled with 500 μl of microorganism suspension and with 500 μl stock solution and the contents were mixed carefully. After 20 min, 1 h and 3 h, respectively, 10 μl were removed from the tubes, and the live microbial count (colony-forming units, CFU) were determined by plating out various dilution of these test mixtures on Caso agar.

[2] = test system: Corynebacterium xerosis; test: Antimicrobial activity, live microbial count (CFU) after contact in suspension
Experimental: as §1, §2
(§4) The products to be tested made as a stock solution; they contained 10 g of ethanol, 0.68 g of macrogol glycerol hydroxystearate 40 (Cremophor® RH40, Omikron, Neckarwestheim, Germany), 1 g of the active substance to be tested and 38.32 g of double-distilled water. This solution was mixed with the microorganism suspension at a ratio of 1:1 in the test and gave an active substance concentration in the test of 1%. If it was intended to test a lower active substance concentration than 1%, the stock solution of the active substance was made up at a correspondingly lower concentration. The substances tested were the ether guanidine of example 1, and double distilled water by way of negative control.
as §3

[3] = test system: Propionibacterium acnes; test: as above
Experimental: as §1, §2, §4, §3

[4] = test system: Candida albicans; test: as above
Experimental: as §1, §2, §4, §3

[5] = test system: Staphylococcus epidermidis; test: as above
Experimental: as §1, §2, §4, §3

[6] = test system: Malassezia furfur; test: as above
Experimental: as §1, §2, §4, §3

[7] = test system: Streptococcus mutans; test: as above
Experimental: as §1, §2, §4, §3

[8] = 1% Ex. 1, 0 min (starting count)

With “C12-15-oxypropylguanidinium chloride [Ex. 1]” the antimicrobial activity [1] was “pronounced antimicrobial activity”, the “CFU/ml 0 min” value [2, 8] was 1.7E+5 CFU/ml and the “CFU/ml 20 min” value ([2]; 1% Ex. 1, 20 min) was less than 2.0E+2 CFU/ml. For the same substance, the “CFU/ml 60 min” value ([2]; 1% Ex. 1, 60 min) was less than 2.0E+2 CFU/ml, the “CFU/ml 180 min” value ([2]; 1% Ex. 1, 180 min) was less than 2.0E+2 CFU/ml and the “CFU/ml 0 min” value [3, 8] was 2.0E+5 CFU/ml. The “CFU/ml 20 min” value ([3]; 1% Ex. 1, 20 min) was less than 2.0E+2 CFU/ml, the “CFU/ml 60 min” value ([3]; 1% Ex. 1, 60 min) was less than 2.0E+2 CFU/ml and the “CFU/ml 180 min” value ([3]; 1% Ex. 1, 180 min) was less than 2.0E+2 CFU/ml. The “CFU/ml 0 min” value ([4]; 0.01% Ex. 1, 0 min (starting count)) was 3.9E+5 CFU/ml, the “CFU/ml 20 min” value ([4]; 0.01% Ex. 1, 20 min) was 4.7E+5 CFU/ml and the “CFU/ml 60 min” value ([4]; 0.01% Ex. 1, 60 min) was 2.2E+5 CFU/ml. The “CFU/ml 180 min” value ([4]; 0.01% Ex. 1, 180 min) was 6.1E+4 CFU/ml, the “CFU/ml 0 min” value ([4]; 0.1% Ex. 1, 0 min (starting count)) was 3.9E+5 CFU/ml and the “CFU/ml 20 min” value ([4]; 0.1% Ex. 1, 20 min) was 5.5E+5 CFU/ml. For the same substance, the “CFU/ml 60 min” value ([4]; 0.1% Ex. 1, 60 min) was 4.3E+4 CFU/ml, the “CFU/ml 180 min” value ([4]; 0.1% Ex. 1, 180 min) was less than 2.0E+2 CFU/ml and the “CFU/ml 0 min” value [4, 8] was 3.9E+5 CFU/ml. For the same substance, the “CFU/ml 20 min” value ([4]; 1% Ex. 1, 20 min) was less than 2.0E+2 CFU/ml, the “CFU/ml 60 min” value ([4]; 1% Ex. 1, 60 min) was less than 2.0E+2 CFU/ml and the “CFU/ml 180 min” value ([4]; 1% Ex. 1, 180 min) was less than 2.0E+2 CFU/ml. The “CFU/ml 0 min” value [5, 8] was 1.2E+5 CFU/ml, the “CFU/ml 20 min” value ([5]; 1% Ex. 1, 20 min) was less than 2.0E+2 CFU/ml and the “CFU/ml 60 min” value ([5]; 1% Ex. 1, 60 min) was less than 2.0E+2 CFU/ml. The “CFU/ml 180 min” value ([5]; 1% Ex. 1, 180 min) was less than 2.0E+2 CFU/ml, the “CFU/ml 0 min” value [6, 8] was 1.4E+5 CFU/ml and the “CFU/ml 20 min” value ([6]; 1% Ex. 1, 20 min) was less than 2.0E+2 CFU/ml. The “CFU/ml 60 min” value ([6]; 1% Ex. 1, 60 min) was less than 2.0E+2 CFU/ml, the “CFU/ml 180 min” value ([6]; 1% Ex. 1, 180 min) was less than 2.0E+2 CFU/ml and the “CFU/ml 0 min” value [7, 8] was 3.2E+5 CFU/ml. For the same substance, the “CFU/ml 20 min” value ([7]; 1% Ex. 1, 20 min) was less than 2.0E+2 CFU/ml, the “CFU/ml 60 min” value ([7]; 1% Ex. 1, 60 min) was less than 2.0E+2 CFU/ml and the “CFU/ml 180 min” value ([7]; 1% Ex. 1, 180 min) was less than 2.0E+2 CFU/ml.
